Tests used:
[1] = test system: advanced pancreatic cancer; conditions: phase II trial, metastatic pancreatic cancer patients; gemcitabine therapy with or without addition of IMM-101 (background); cited from earlier work
[2] = test system: advanced pancreatic cancer; assay: Randomised, open-label, phase II study of gemcitabine with and without IMM-101 (IMAGE 1); type: in vivo, human
From the text: This study is described in U.S. Pat. No. 8,617,520 assigned to the applicant, and the results were published by Dalgeish et al, in the paper entitled “Randomised, open-label, phase II study of gemcitabine with and without IMM-101 for advanced pancreatic cancer”. [Br. J. Cancer. 2016 Sep. 27; 115(7): 789-796] and also as “Long term survival in IMAGE 1 (Immune Modulation And Gemcitabine Evaluation 1), a randomized, open-label phase II trial comparing gemcitabine with and without IMM-101 in advanced pancreatic cancer”; Angus George Dalgleish and The IMAGE 1 Trial Investigators; Journal of Clinical Oncology 2015 33:15_suppl, 3051-3051.
In summary, this study compared, in patients with advanced pancreatic cancer, the effects of gemcitabine (GEM) in combination with IMM-101 (a suspension of heat-killed whole cell M. obuense in borate-buffered saline) to gemcitabine alone on: Safety and tolerability, including QoL; clinical signs and symptoms of disease; Overall survival (OS), progression-free survival (PFS), and overall response rate (ORR; Selected markers of tumour burden and immunological status
Disease outcome—patients, who provided informed consent, participated in a screening period of up to 28 days to establish eligibility. […]

In the case of `Nc1ccn([C@@H]2O[C@H](CO)[C@@H](O)C2(F)F)c(=O)n1` [GEM, gemcitabine], the overall survival [1] is listed as 4.4 months, the “patients with BOR of PD” value ([2]; PS2 patients) is listed as 2 patients and the OS ([2]; pre-defined metastatic subgroup (84%)) is listed as 4.4 months.
